For this assay, the system named is MV4:11 human cancer cell lines. The experiment in a line: Cellular viability / anti-proliferative activity, CellTiter-Glo, 5 day protocol. It is filed as cell-based. As to conditions: Homo sapiens, MV4-11, 120 h, read-out: GI50 on cellular proliferation of MV4:11 human cancer cell lines. Put shortly: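 Cells seeded at 200 per well (7200 cells/mL) with compound in 2-fold serial dilutions from 30 μM top (22 points), 0.3% DMSO final. Viability read by CellTiter-Glo luminescence after 5 days; GI50 from sigmoidal dose-response fit, mean of at least two replicates.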
For orientation: In ATP-based viability assays light output follows the ATP content of the culture.

The mark [1] stands for this setting: MV4:11 cells, 5 day incubation, CellTiter-Glo, mean of minimum two replicates.

Where two headings read alike, the source gives them in different places. Where only a bound is given, the exact number is not on record here.

For `COc1cc(CN2CCc3cc(F)c(CNC4=NCCN4)cc3C2=O)cc(OC)c1` [Example 133, 7-(((4,5-Dihydro-1H-imidazol-2-yl)amino)methyl)-2-(3,5-dimethoxybenzyl)-6-fluoro-3,4-dihydroisoquinolin-1(2H)-one], under setting [1], the GI50 was determined as 173 nM. On the same count and under the same terms, then `CCc1nccn1Cc1cc2c(c(-c3cc(C)nc(C)c3)c1)CCN(Cc1cc(OC)cc(OC)c1)C2=O` [Example 155, 2-(3,5-Dimethoxybenzyl)-5-(2,6-dimethylpyridin-4-yl)-7-((2-ethyl-1H-imidazol-1-yl)methyl)-3,4-dihydroisoquinolin-1(2H)-one], with 407 nM.

With `Cc1ccnc(C(C2CC2)N2CCc3c(cc(Cn4ccn(C)c4=N)cc3-c3ccc(F)cc3C)C2=O)c1` (stereo not shown) [Example 30, 2-(Cyclopropyl(4-methylpyridin-2-yl)methyl)-5-(4-fluoro-2-methylphenyl)-7-((2-imino-3-methyl-2,3-dihydro-1H-imidazol-1-yl)methyl)-3,4-dihydroisoquinolin-1(2H)-one], the GI50 worked out at 95 nM. On to `CCc1ccnc([C@H](C)N2CCc3c(cc(Cn4ccnc4)cc3-c3cn(C)nc3C(F)(F)F)C2=O)c1` [Example 191, (S)-7-((1H-Imidazol-1-yl)methyl)-2-(1-(4-ethylpyridin-2-yl)ethyl)-5-(1-methyl-3-(trifluoromethyl)-1H-pyrazol-4-yl)-3,4-dihydroisoquinolin-1(2H)-one], for which the GI50 under setting [1] was under 50 nM. Same read-out and setting: then `CCn1cc(-c2cc(Cn3ccn(C)c3=N)cc3c2CCN(Cc2cc(OC)ccn2)C3=O)c(C(F)(F)F)n1` [Example 57, 5-(1-Ethyl-3-(trifluoromethyl)-1H-pyrazol-4-yl)-7-((2-imino-3-methyl-2,3-dihydro-1H-imidazol-1-yl)methyl)-2-((4-methoxypyridin-2-yl)methyl)-3,4-dihydroisoquinolin-1(2H)-one], with 50 nM; and `Cc1nccn1Cc1cc2c(c(-c3cn(C)nc3C(F)(F)F)c1)CCN(Cc1cccc(-c3ccsc3)c1)C2=O` [Example 231, 7-((2-Methyl-1H-imidazol-1-yl)methyl)-5-(1-methyl-3-(trifluoromethyl)-1H-pyrazol-4-yl)-2-(3-(thiophen-3-yl)benzyl)-3,4-dihydroisoquinolin-1(2H)-one], with 550 nM. Regarding `COc1ccnc(CN2CCc3c(cc(CNC(=N)C(F)(F)F)cc3-c3cn(C)nc3C(F)(F)F)C2=O)c1` [Example 120, 2,2,2-Trifluoro-N-((2-((4-methoxypyridin-2-yl)methyl)-5-(1-methyl-3-(trifluoromethyl)-1H-pyrazol-4-yl)-1-oxo-1,2,3,4-tetrahydroisoquinolin-7-yl)methyl)acetimidamide], the GI50 under setting [1] was over 938 nM.

As for `Cc1nccn1Cc1cc2c(c(-c3cn(C)nc3C(F)(F)F)c1)CCN(CC1CCCCO1)C2=O` (stereo not shown) [Example 169, 7-((2-Methyl-1H-imidazol-1-yl)methyl)-5-(1-methyl-3-(trifluoromethyl)-1H-pyrazol-4-yl)-2-((tetrahydro-2H-pyran-2-yl)methyl)-3,4-dihydroisoquinolin-1(2H)-one], under setting [1], the GI50 was 2000 nM. For `Cc1nccn1Cc1cc2c(c(-c3cn(C)nc3C(F)(F)F)c1)CCN(Cc1cccc(C(F)(F)F)c1)C2=O` [Example 221, 7-((2-Methyl-1H-imidazol-1-yl)methyl)-5-(1-methyl-3-(trifluoromethyl)-1H-pyrazol-4-yl)-2-(3-(trifluoromethyl)benzyl)-3,4-dihydroisoquinolin-1(2H)-one], the GI50 under setting [1] worked out at 421 nM.

For the compound `CCn1cc(-c2cc(Cn3ccn(C)c3=N)cc3c2CCN(Cc2cc(OC)ccn2)C3=O)cn1` [Example 49, 5-(1-Ethyl-1H-pyrazol-4-yl)-7-((2-imino-3-methyl-2,3-dihydro-1H-imidazol-1-yl)methyl)-2-((4-methoxypyridin-2-yl)methyl)-3,4-dihydroisoquinolin-1(2H)-one], the GI50 under setting [1] worked out at 906 nM. Regarding `COc1cc(CN2CCc3c(cc(Cn4ccnc4C)cc3-c3cn(C)nc3C(F)(F)F)C2=O)cc(OC)c1` [Example 10, 2-(3,5-Dimethoxybenzyl)-7-((2-methyl-1H-imidazol-1-yl)methyl)-5-(1-methyl-3-(trifluoromethyl)-1H-pyrazol-4-yl)-3,4-dihydroisoquinolin-1(2H)-one], the GI50 under setting [1] was under 50 nM. On to `COc1ccnc(CN2CCc3c(cc(Cn4ccnc4N)cc3-c3cn(C)nc3C(F)(F)F)C2=O)c1` [Example 65, 7-((2-Amino-1H-imidazol-1-yl)methyl)-2-((4-methoxypyridin-2-yl)methyl)-5-(1-methyl-3-(trifluoromethyl)-1H-pyrazol-4-yl)-3,4-dihydroisoquinolin-1(2H)-one], for which, under setting [1], the GI50 is under 50 nM. `COc1ccnc(CN2CCc3c(cc(Cn4ccnc4C4CC4)cc3-c3cn(C)nc3C(F)(F)F)C2=O)c1` [Example 11, 7-((2-Cyclopropyl-1H-imidazol-1-yl)methyl)-2-((4-methoxypyridin-2-yl)methyl)-5-(1-methyl-3-(trifluoromethyl)-1H-pyrazol-4-yl)-3,4-dihydroisoquinolin-1(2H)-one]: the GI50 under setting [1] turned out to be 54 nM. Consider `CCn1cc(-c2cc(Cn3ccoc3=N)cc3c2CCN(Cc2cc(OC)ccn2)C3=O)c(C(F)(F)F)n1` [Example 89, 5-(1-Ethyl-3-(trifluoromethyl)-1H-pyrazol-4-yl)-7-((2-iminooxazol-3(2H)-yl)methyl)-2-((4-methoxypyridin-2-yl)methyl)-3,4-dihydroisoquinolin-1(2H)-one], for which, under setting [1], the GI50 is under 50 nM.

Turning to `COc1ccnc([C@H](C)N2CCc3c(cc(Cn4ccnc4C)cc3-c3cncnc3C(F)(F)F)C2=O)c1` [Example 249, (S)-2-(1-(4-Methoxypyridin-2-yl)ethyl)-7-((2-methyl-1H-imidazol-1-yl)methyl)-5-(4-(trifluoromethyl)pyrimidin-5-yl)-3,4-dihydroisoquinolin-1(2H)-one], under setting [1], the GI50 was determined as 1970 nM. On the same count and under the same terms, to `CCn1cc(-c2cc(Cn3ccnc3C3CC3)cc3c2CCN([C@@H](C)c2cc(OC)ccn2)C3=O)c(C(F)(F)F)n1` [Example 159, (S)-7-((2-Cyclopropyl-1H-imidazol-1-yl)methyl)-5-(1-ethyl-3-(trifluoromethyl)-1H-pyrazol-4-yl)-2-(1-(4-methoxypyridin-2-yl)ethyl)-3,4-dihydroisoquinolin-1(2H)-one] belongs under 50 nM. Still for that read-out and setting: to `Cc1cc([C@H](C)N2CCc3c(cc(Cn4ccnc4)cc3-c3cn(C)nc3C(F)(F)F)C2=O)ncc1F` [Example 185, (S)-7-((1H-Imidazol-1-yl)methyl)-2-(1-(5-fluoro-4-methylpyridin-2-yl)ethyl)-5-(1-methyl-3-(trifluoromethyl)-1H-pyrazol-4-yl)-3,4-dihydroisoquinolin-1(2H)-one] belongs under 50 nM. As to `Cc1cc([C@H](C)N2CCc3c(cc(Cn4ccn(C)c4=N)cc3-c3cn(C)nc3C)C2=O)ccc1F` [Example 143, (S)-5-(1,3-Dimethyl-1H-pyrazol-4-yl)-2-(1-(4-fluoro-3-methylphenyl)ethyl)-7-((2-imino-3-methyl-2,3-dihydro-1H-imidazol-1-yl)methyl)-3,4-dihydroisoquinolin-1(2H)-one], under setting [1], the GI50 is under 50 nM.

With `Cc1cc(C)nc([C@H](C)N2CCc3c(cc(Cn4ccnc4C)cc3-c3cn(C)nc3C(F)(F)F)C2=O)c1` [Example 165, (S)-2-(1-(4,6-Dimethylpyridin-2-yl)ethyl)-7-((2-methyl-1H-imidazol-1-yl)methyl)-5-(1-methyl-3-(trifluoromethyl)-1H-pyrazol-4-yl)-3,4-dihydroisoquinolin-1(2H)-one], the GI50 under setting [1] was under 50 nM. In the case of `Cc1ccnc([C@H](C2CC2)N2CCc3c(cc(Cn4cnn(C)c4=N)cc3-c3ccc(F)cc3C)C2=O)c1` [Example 126, (S)-2-(Cyclopropyl(4-methylpyridin-2-yl)methyl)-5-(4-fluoro-2-methylphenyl)-7-((5-imino-1-methyl-1,5-dihydro-4H-1,2,4-triazol-4-yl)methyl)-3,4-dihydroisoquinolin-1(2H)-one], under setting [1], the GI50 is under 50 nM. For the compound `CC[C@@H](c1cncc(C)c1)N1CCc2c(cc(Cn3ccnc3C)cc2-c2cn(C)nc2C(F)(F)F)C1=O` [Example 199, (S)-7-((2-Methyl-1H-imidazol-1-yl)methyl)-5-(1-methyl-3-(trifluoromethyl)-1H-pyrazol-4-yl)-2-(1-(5-methylpyridin-3-yl)propyl)-3,4-dihydroisoquinolin-1(2H)-one], the GI50 under setting [1] is under 50 nM.

With `COc1ccnc(CN2CCc3c(cc(Cn4ccn(C(F)F)c4=N)cc3-c3cn(C)nc3C(F)(F)F)C2=O)c1` [Example 61, 7-((3-(Difluoromethyl)-2-imino-2,3-dihydro-1H-imidazol-1-yl)methyl)-2-((4-methoxypyridin-2-yl)methyl)-5-(1-methyl-3-(trifluoromethyl)-1H-pyrazol-4-yl)-3,4-dihydroisoquinolin-1(2H)-one], the GI50 under setting [1] was under 50 nM.

On to `COc1cc(CN2CCc3c(cc(Cn4ccn(C)c4=N)cc3-c3cn(C)nc3C)C2=O)cc(OC)c1` [Example 70, 2-(3,5-Dimethoxybenzyl)-5-(1,3-dimethyl-1H-pyrazol-4-yl)-7-((2-imino-3-methyl-2,3-dihydro-1H-imidazol-1-yl)methyl)-3,4-dihydroisoquinolin-1(2H)-one], for which the GI50 under setting [1] turned out to be 77 nM. For `CCc1ccc(OCC(=O)NCc2cccnc2)c(CN2CCc3c(cc(Cn4ccnc4C)cc3-c3cn(C)nc3C(F)(F)F)C2=O)c1` [Example 215, 2-(4-Ethyl-2-((7-((2-methyl-1H-imidazol-1-yl)methyl)-5-(1-methyl-3-(trifluoromethyl)-1H-pyrazol-4-yl)-1-oxo-3,4-dihydroisoquinolin-2(19)-yl)methyl)phenoxy)-N-(pyridin-3-ylmethyl)acetamide], the GI50 under setting [1] turned out to be 168 nM.

In the case of `CCc1ccnc(CN2CCc3c(cc(Cn4ccnc4C)cc3-c3cn(CC)nc3C(F)(F)F)C2=O)c1` [Example 21, 5-(1-Ethyl-3-(trifluoromethyl)-1H-pyrazol-4-yl)-2-((4-ethylpyridin-2-yl)methyl)-7-((2-methyl-1H-imidazol-1-yl)methyl)-3,4-dihydroisoquinolin-1(2H)-one], the GI50 under setting [1] is under 50 nM.
